Measured values reported in ChEMBL document CHEMBL1201862, “PubChem BioAssay data set” (2004).
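A five-concentration, 48-hour dose response in 96-well plates underlies each endpoint, interpolated linearly between surrounding concentrations. GI50 = concentration required for 50% inhibition of growth.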 Activity calls are given as the source filed them. Cut-off read from the data, not from the text of the source: active = GI50 up to about 1.1 µM and inactive = higher.

Key:
Assay in all cases: growth of human tumour cells (NCI), 48 h
786-0 = system: 786-0
A498 = system: A498
A549 = system: A549
ACHN = system: ACHN
BT-549 = system: BT-549
CAKI-1 = system: CAKI-1
CCRF-CEM = system: CCRF-CEM
COLO 205 = system: COLO 205
DU-145 = system: DU-145
EKVX = system: EKVX
HCC 2998 = system: HCC 2998
HCT-116 = system: HCT-116
HCT-15 = system: HCT-15
HL-60 = system: HL-60
HOP-62 = system: HOP-62
HOP-92 = system: HOP-92
HT-29 = system: HT-29
Hs-578T = system: Hs-578T
IGROV-1 = system: IGROV-1
K562 = system: K562
KM12 = system: KM12
LOX IMVI = system: LOX IMVI
MCF7 = system: MCF7
MDA-MB-231 = system: MDA-MB-231
MDA-MB-435 = system: MDA-MB-435
MDA-N = system: MDA-N
MOLT-4 = system: MOLT-4
Malme-3M = system: Malme-3M
NCI-H226 = system: NCI-H226
NCI-H23 = system: NCI-H23
NCI-H460 = system: NCI-H460
NCI-H522 = system: NCI-H522
NCI/ADR-RES = system: NCI/ADR-RES
OVCAR-3 = system: OVCAR-3
OVCAR-4 = system: OVCAR-4
OVCAR-5 = system: OVCAR-5
OVCAR-8 = system: OVCAR-8
PC-3 = system: PC-3
RPMI-8226 = system: RPMI-8226
RXF 393 = system: RXF 393
SF-268 = system: SF-268
SF-295 = system: SF-295
SF-539 = system: SF-539
SK-MEL-28 = system: SK-MEL-28
SK-MEL-2 = system: SK-MEL-2
SK-MEL-5 = system: SK-MEL-5
SK-OV-3 = system: SK-OV-3
SN12C = system: SN12C
SNB-75 = system: SNB-75
SR = system: SR
SW-620 = system: SW-620
T47D = system: T47D
TK-10 = system: TK-10
UACC-257 = system: UACC-257
UACC-62 = system: UACC-62
UO-31 = system: UO-31
M14 = system: M14
U-251 = system: U-251

Measured: GI50

CN(C)CCCNC(=O)c1c(O)c2ccccc2[nH]c1=O
> 100 µM: HCT-15
inactive: 786-0 > 100 µM | A498 > 100 µM | A549 > 100 µM | ACHN > 100 µM | BT-549 > 100 µM | CAKI-1 47.2 µM | CCRF-CEM > 100 µM | COLO 205 41.1 µM | DU-145 > 100 µM | EKVX > 100 µM | HCC 2998 > 100 µM | HCT-116 > 100 µM | HL-60 > 100 µM | HOP-62 > 100 µM | HOP-92 38.4 µM | HT-29 > 100 µM | Hs-578T > 100 µM | IGROV-1 42 µM | K562 > 100 µM | KM12 > 100 µM | LOX IMVI > 100 µM | MCF7 > 100 µM | MDA-MB-231 > 100 µM | MDA-MB-435 > 100 µM | MDA-N > 100 µM | MOLT-4 > 100 µM | Malme-3M > 100 µM | NCI-H226 > 100 µM | NCI-H23 > 100 µM | NCI-H460 > 100 µM | NCI-H522 > 100 µM | NCI/ADR-RES 88.5 µM | OVCAR-3 > 100 µM | OVCAR-4 > 100 µM | OVCAR-5 > 100 µM | OVCAR-8 > 100 µM | PC-3 > 100 µM | RPMI-8226 > 100 µM | RXF 393 95.7 µM | SF-268 83.2 µM | SF-295 22.9 µM | SF-539 > 100 µM | SK-MEL-28 > 100 µM | SK-MEL-2 > 100 µM | SK-MEL-5 > 100 µM | SK-OV-3 > 100 µM | SN12C > 100 µM | SNB-75 > 100 µM | SR > 100 µM | SW-620 > 100 µM | T47D > 100 µM | TK-10 > 100 µM | UACC-257 > 100 µM | UACC-62 > 100 µM | UO-31 14.5 µM

N=C(N)Nc1ccc(CC(N)C(=O)O)cc1 (configuration not stated)
inactive: 786-0 > 12.5 µM | A498 > 12.5 µM | A549 > 12.5 µM | ACHN > 12.5 µM | BT-549 > 12.5 µM | CAKI-1 > 12.5 µM | CCRF-CEM > 12.5 µM | COLO 205 > 12.5 µM | DU-145 > 12.5 µM | EKVX > 12.5 µM | HCC 2998 > 12.5 µM | HCT-116 > 12.5 µM | HL-60 > 12.5 µM | HOP-62 > 12.5 µM | HOP-92 > 12.5 µM | HT-29 > 12.5 µM | Hs-578T > 12.5 µM | IGROV-1 > 12.5 µM | K562 > 12.5 µM | KM12 > 12.5 µM | LOX IMVI > 12.5 µM | M14 > 12.5 µM | MCF7 > 12.5 µM | MDA-MB-231 > 12.5 µM | MDA-MB-435 > 12.5 µM | MDA-N > 12.5 µM | MOLT-4 > 12.5 µM | Malme-3M > 12.5 µM | NCI-H226 > 12.5 µM | NCI-H23 > 12.5 µM | NCI-H522 > 12.5 µM | NCI/ADR-RES > 12.5 µM | OVCAR-3 > 12.5 µM | OVCAR-4 > 12.5 µM | OVCAR-5 > 12.5 µM | OVCAR-8 > 12.5 µM | PC-3 > 12.5 µM | RPMI-8226 > 12.5 µM | RXF 393 > 12.5 µM | SF-268 > 12.5 µM | SF-295 > 12.5 µM | SK-MEL-28 > 12.5 µM | SK-MEL-2 > 12.5 µM | SK-MEL-5 > 12.5 µM | SK-OV-3 > 12.5 µM | SN12C > 12.5 µM | SNB-75 > 12.5 µM | SR > 12.5 µM | SW-620 > 12.5 µM | T47D > 12.5 µM | TK-10 > 12.5 µM | U-251 > 12.5 µM | UACC-257 > 12.5 µM | UACC-62 > 12.5 µM | UO-31 > 12.5 µM
> 12.5 µM: HCT-15
